Measurements taken from patent US20040191842A1, “Chemopreventive and therapeutic aspects of polyphenolic compositions and assays” (Medical College of Georgia Research Institute, Inc., priority 2002, published 2004).
“Also recorded” adds a separate entry of the source.

How the values were obtained:
Format in all cases: cell-based, human
p57 (KIP2) = assay: Western blot of p57 in SCC25 oral carcinoma cells; settings: 50 μM EGCG or 0.2 mg/ml GTPPs, 24 h
Protocol: Cell treatments. For 24 hours treatments, exponentially growing cells with 40% confluency (to minimize differentiation and spontaneous apoptosis) were either maintained in 50 μM EGCG (2.29 mg/100 ml) or 0.2 mg/ml of GTPPs in tissue culture flasks (25 cm^2). Control flasks contained cells without any treatment. To test whether BaP or NNK interfere with the induction of p57, the human keratinocytes were treated with 0.12 μM BaP, or 10 μM NNK, either alone or in combination with 50 μM EGCG. To examine the time course of p57 induction, cells were treated with 50 μM EGCG and harvested for Western analysis at 30 minutes, 2 hours, 6 hours, and 24 hours. The human keratinocytes were treated when the cell density reached 85-90% confluency (to mimic the epithelium).
Western blot analysis. Cells from different treatment groups were lysed in RIPA buffer (1% NP-40, 1% sodium deoxycholate, 0.1% SDS, 0.15 M NaCl, 0.01 M sodium phosphate, pH 7.2, and 1% Trasylol) containing proteinase inhibitors (1 mM PMSF, 1 μg/ml each of aprotinin, leupeptin, and pepstatin). The concentration of protein in each sample was determined using the BioRad DC Protein Assay and spectrophotometry. Fifty micrograms (μg) of protein from each sample and a BioRad molecular weight standard marker were run on a 10% SDS-PAGE, followed by transfer to nitrocellulose membranes. […]

MCF7 cells [1] = assay: Morphological analysis, MCF7 cells; settings: EGCG, 48 hours, vs 24 hour control
From the text: Cell lines and cell culture. The normal human keratinocytes (NHEK CC-2507) were purchased from Cambrex (East Rutherford, N.J.) and maintained in KGM-2 medium (Cambrex). The OSC2 cell line was previously described (Osaki et al., Eur J Cancer B Oral Oncol 1994; 30 B:296-301). The breast carcinoma MCF7 cell line was purchased from American Type Culture Collection. The MCF7(C) caspase+cell line “7-3-28 ” was established and tested as previously described (Janicke et al., J Biol Chem 1998; 273:9357-60, Blanc et al., Cancer Res 2000; 60:4386-90). These tumor cells were maintained in 45% Dulbecco's Modified Eagle's Medium (DMEM), 45% Ham's F12 medium and 10% fetal calf serum, 100 I.U/ml penicillin, 100 μg/ml streptomycin and 5 μg/ml hydrocortisone. All cell cultures were maintained in a 37° C. incubator with 5% CO2. Light microscopic photographs were taken with a SPOT RT digital camera system (Diagnostic Instruments) linked to a Nikon Phase Contrast-2 microscope at an original magnification of 200×.

OSC-2 cells = assay: Intracellular ROS levels (DFDA assay), OSC-2 cells
Protocol: (§1) Measurement of intracellular ROS levels. The ROS assay measures the accumulation of intracellular ROS levels. The non-fluorescent dye DFDA passively diffuses into cells, where the acetates are cleaved by intracellular esterases. […] Thus, values of the fluorescence in the cell cultures are constantly rising in this assay. Cells (1.5×10^4 cells/well) were incubated with Hallam's physiological saline (HPS) containing DFDA (10 μM) in a 96-well microplate for 30 minutes at 37° C. After the incubation, cells were washed three times with HPS and then incubated with HPS containing EGCG (15-200 μM) or diamide (5 mM) for the indicated time periods. The intracellular ROS levels were measured by using a fluorescence plate reader (BIO-TEK FL600, Bio-Tek Instruments, Inc., Winooski, Vt.), at an excitation wavelength of 485 nm and an emission wavelength of 530 nm.
as §1, with “assay (DFDA assay)” for “assay”, “dye dichlorofluorescein diacetate (DFDA)” for “dye DFDA”, “this assay due to the accumulation of ROS.” for “this assay.”, “EGCG (50-200” for “EGCG (15-200”, “indicated times.” for “indicated time periods.”

NHEK = assay: Intracellular ROS levels (DFDA assay), NHEK; settings: EGCG 15-200 μM, up to 120 minutes
Protocol: Measurement of intracellular ROS levels. The ROS assay measures the accumulation of intracellular ROS levels. The non-fluorescent dye DFDA passively diffuses into cells, where the acetates are cleaved by intracellular esterases. […] Thus, values of the fluorescence in the cell cultures are constantly rising in this assay. […] The intracellular ROS levels were measured by using a fluorescence plate reader (BIO-TEK FL600, Bio-Tek Instruments, Inc., Winooski, Vt.), at an excitation wavelength of 485 nm and an emission wavelength of 530 nm.

MCF7 cells [2] = assay: MTT assay (mitochondrial SDH activity), MCF7 cells; settings: 50 μM EGCG
Protocol: MTT (3-(4,5-dimethylthiazol-2-yl)-2,5-diphenyl tetrazolium bromide) assay. This method detects the activity of mitochondrial succinate dehydrogenase (SDH). In a 96-well plate, 1.5×10^4 cells were seeded in each well. After variety of treatments, 100 μl of 2% MTT was added to each well and the plate was incubated at 37° C. for 30 minutes. 100 μl of 0.2 M Tris (pH 7.7) with 4% formalin was added to each well. After incubation at room temperature for 5 minutes, liquid was removed and the wells were allowed to dry. Each well was rinsed with 200 μl water followed by addition of 100 μl DMSO (6.35% 0.1 N NaOH in DMSO) to each well. The coloration was measured by a Thermo MAX microplate reader (Molecular Devices Corp. Sunnyvale, Calif. using wavelengths of 562 nm. Experiments were repeated three times with triplicate samples for each experiment.

OSC-4 cells = assay: BrdU incorporation assay, OSC-4 cells; settings: for DNA synthesis (BrdU assay): 24 hours
Protocol: (§2) DNA synthesis assay. DNA synthesis was analyzed by a BrdU Cell Proliferation Assay Kit (Oncogene Research Products, Boston, Mass.). […] After the treatment, cells were labeled with BrdU for 2 hours at 37° C. and reacted with anti-BrdU antibody. Unbound antibody in each well was removed by rinsing, and horseradish peroxidase-conjugated goat anti-mouse antibody was added to each well. The color reaction was visualized according to the protocol provided by the manufacturer.
as §2, with “cell proliferation assay kit” for “Cell Proliferation Assay Kit”, “anti-mouse IgG” for “anti-mouse”, “reaction to visualize the secondary antibody” for “reaction”, “carried out” for “visualized”

caspase 14 and p21 = assay: Caspase 14 and p21 expression in OSC2 cells; settings: EGCG
Protocol: To identify additional factors those suppress EGCG -induced apoptosis and facilitate cell differentiation in NHEK, exponentially growing NHEK (Cambrex, Baltimore, Md.) were exposed to 100 μM EGCG for 0, 2, 6 and 24 hours, prior to total RNA isolation using the Qiagen RNeasy mini kit (Valencia, Calif.), which was followed by RT-PCR labeling and hybridization with the Human Apoptosis Macroarray membrane (Sigma-Genosys, The Woodlands, Tex.). Total cell lysates also were collected following a variety of EGCG treatments. The protein levels for caspase 14 and p21 were determined by immuno-blotting using antibodies specific for caspase 14 and p21 (Santa Cruz Biotechnology, Santa Cruz, Calif.).
Normal human epidermal keratinocytes (NHEK; Cambrex), and oral squamous cell carcinoma (OSC2) cells, originally from gingival tissue, were compared. Exponentially growing cells were exposed to 50 or 100 μM EGCG for 0 hours, 2 hours, 6 hours or 24 hours. Cells were harvested for total RNA, which was examined by apoptosis macroarrays (Sigma Genosys), followed by phosphorimagery and data analysis (GeneSpring). Protein production of expressed genes was confirmed by Western blotting of whole cell lysates.

Which results are given for `O=C(O[C@@H]1Cc2c(O)cc(O)cc2O[C@@H]1c1cc(O)c(O)c(O)c1)c1cc(O)c(O)c(O)c1` [EGCG, (−)-epigallocatechin-3-gallate]?
p57 levels (p57 (KIP2)): remained unchanged; cell density (MCF7 cells [1]): increased cell density was observed; intracellular ROS levels vs controls (OSC-2 cells; 50 μM EGCG, 60 minute exposure): remained comparable to the controls; intracellular ROS levels vs control (OSC-2 cells; 50 or 200 μM EGCG, beyond 120 minutes): remained significantly higher than the control levels; H2O2 concentration producing ROS equivalent to 200 μM EGCG (OSC-2 cells; first hour): 50 µM; intracellular ROS levels (NHEK): significantly reduced immediately after the addition of EGCG; also recorded: reduce ROS to background levels; mitochondrial SDH activities (MCF7 cells [2]): significantly decreased; DNA synthesis (BrdU assay) (OSC-4 cells; 50 μM EGCG): did not show significant changes; BrdU incorporation, of control levels (OSC-4 cells; 200 μM EGCG): approximately 75%; reduction of BrdU incorporation (OSC-4 cells; 200 μM EGCG, 24-hour period): approximately 25%; DNA synthesis (BrdU assay) (OSC-4 cells; 200 μM EGCG): significantly reduced SDH activity and DNA synthesis; caspase 14 and p21 levels (caspase 14 and p21; identical conditions to NHEK): failed to show increased caspase 14 or decreased p21; p21 mRNA elevated (caspase 14 and p21; within 2 hours): 3 fold
